From US20200164047A1, “THERAPY AND DIAGNOSIS OF DISEASE CHARACTERIZED BY ALTERATIONS IN THE DNA DAMAGE RESPONSE” (UNIVERSITÀ DEGLI STUDI DI MILANO, priority 2017, published 2020)

Experiments:
[1] = tested on: cancer cells; test: Lactate production and glucose consumption of cancer cells; format: cell-based; settings: metformin treatment
Method: FIG. 20. […] (F, G) Quantification of oxygen consumption rate normalized by cell numbers of cells cultured in DMEM medium containing the indicated concentrations of glucose for 12 hours (F) or in DMEM medium containing with 2.5 mM glucose for the indicated time points (G).
Lactate production was measured using Lactate Assay Kit (Sigma Aldrich) according to manufacturer's instructions.

[2] = tested on: PP2A-GSK3β-MCL-1 axis; test: Immunoblotting of phosphorylated GSK3β, MCL-1 and CIP2A; format: cell-based; settings: HCT116 and HeLa
Method: FIG. 16. […] (A, B) Immunoblotting analysis of lysates derived from HCT116 and HeLa cells cultured for 24 hours in either nutrient-rich DMEM (containing 10% FBS and 10 mM glucose), DMEM containing 2.5 mM glucose (glucose deprivation), DMEM with 0.1% serum (serum deprivation) or DMEM with no glutamine, no methionine and no cysteine (amino acids deprivation). Media were replenished every 6 hours.
(§1) FIG. 31. […] (B) Immunoblotting analysis of total cell lysates used for immunoprecipitation in (A).
Whole cell lysates were prepared by directly lysing cells growing in culturing dishes or collected cell pellets in lysis buffer (40 mM Hepes pH 7.5, 120 mM NaCl, 1 mM EDTA, 10 mM pyrophosphate, 10 mM glycerophosphate, 50 mM NaF, 0.5 mM orthovanadate, and EDTA-free protease inhibitors (Roche) containing 0.3% CHAPS). Lysates were prepared from frozen tumors using GentleMACS dissociator. Lysates were cleared by centrifugation at 13000 g for 15 min. at 4° C., quantified using BioRad DC protein assay reagent followed by mixing 1:1 with 4% SDS, 100 mM Tris.Cl pH 6.8, 20% glycerol, 0.1% bromophenol blue and 5% β-mercaptoethanol added immediately before use and heating at 94° C. for 7 min. Equal amounts of proteins were then electrophoresed on 8-15% SDS-PAGE gels. Gels were run at 100 V (stacking gel)/150 V (separation gel) on Protean III apparatus (BioRad). Gels were transferred onto nitrocellulose and probed with the appropriate primary antibody for a variable incubation time depending on the experimental design, followed by the corresponding secondary antibodies diluted 1:5000-10000. The proteins were visualized by enhanced chemiluminescence (ECL) using ChemiDoc apparatus (BioRad) according to the manufacturer's instructions.

[3] = tested on: PDX models (patient-derived xenografts) from melanoma patients; test: In vivo growth of melanoma PDX models; design: species or system mice; settings: metformin-intermittent fasting combination
Method: CD1 nude mice received single subcutaneous flank injections of 5×10^6 HCT-116 cells or 1×10^5 patient-derived melanoma cells suspended in 200 μl saline. After the tumors were established, mice were randomized in different groups. Mice were kept on the feeding/fasting protocols described. […] Tumor growth was monitored by bi-dimensional measurements using a caliper. Experiments have been done in accordance with the Italian Laws (D.L.vo 116/92 and following additions), which enforces EU 86/609 Directive (Council Directive 86/609/EEC of 24 Nov. 1986 on the approximation of laws, regulations and administrative provisions of the Member States regarding the protection of animals used for experimental and other scientific purposes). Mice have been housed accordingly to the guidelines set out in Commission Recommendation 2007/526/EC—Jun. 18, 2007 on guidelines for the accommodation and care of animals used for experimental and other scientific purposes. Note that nude mice show a strain-specific decline in glucose levels upon fasting, of a higher degree as compared to other commonly used mouse strains (C57B6).

[4] = tested on: HCT116 and HeLa cells; settings: low glucose conditions plus metformin, 24 h
Method: FIG. 14. […] (A) Images of HCT116 and HeLa cells cultured for 24 hours in either nutrient-rich DMEM (containing 10% FBS and 10 mM glucose), DMEM containing 2.5 mM glucose (glucose deprivation), DMEM with 0.1% serum (serum deprivation) or DMEM with no glutamine, no methionine and no cysteine (amino acids deprivation). Media were replenished every 6 hours. (B) Quantification of cell death of HCT116 and HeLa cells cultured as in A as measured by propidium iodide uptake using flow cytometry. […] Media were replenished every 6 hours.
as §1
Cells were harvested by trypsinization, washed in PBS (pH 7.2), and then stained with propidium iodide (10 mg/ml) added immediately prior to analysis. Cell fluorescence was then measured on a flow cytometer (FACSCalibur; Becton Dickinson, CA) and analyzed using CellQuest software.

[5] = Blood glucose levels in tumor-bearing mice; settings: metformin 200 mg/kg oral gavage
Excerpt: (B-D) The levels of blood glucose measured at the end of each feeding/fasting cycle in different experimental groups. […] Error bars indicate SEM. (n=5 per group).
To this end, mice bearing HCT116 xenografts were distributed into five groups as schematized in FIG. 13; the first two groups were kept on ad libitum feeding while the three other groups were subjected to 24-hour cycles of feeding-fasting. Fasting in those groups was achieved by complete withdrawal of food while allowing free access to water. […] The first of those three groups (Fed/Fast group) received vehicle every 48h to assess the effect of fasting-feeding cycles alone on tumor growth. […] Tumor growth was monitored in all groups.

[6] = tested on: Bx-PC3 pancreatic cancer cells; format: cell-based; settings: metformin in combination with low glucose, 24, 48 and 72 hrs
[7] = tested on: HCT116 xenograft tumors; test: In vivo growth of HCT116 xenograft tumors; design: species or system mice
Excerpt: FIG. 13. […] Error bars indicate SEM.
as §1

[8] = tested on: yeast cells undergoing chronological aging; test: Chronological lifespan (CLS) with UV: DDR, NER, viability; format: cell-based, S. cerevisiae; settings: UV 40 J/m^2; rapamycin 2 ng/ml or metformin 80 mM
Method: Both drugs were supplemented at the initial overnight culture stage (Day 0), prior to cells entering stationary phase. In experiments including rapamycin-treated cultures, DMSO (0.04%) was used in the untreated cultures. For each chronological aging experiment, cells were set up in synthetic complete medium (SDC) and allowed to grow overnight at 28° C. to reach exponentially growing conditions the next day (day 1) until the end of kinetics (day 10/11 for DDR and NER analysis, day 21-28 for viability). At each examined day, small aliquots of cells were removed, exposed to 40 J/m^2 and further incubated in their exhausted medium. Samples were taken at untreated (prior to UV), 0 and 2 hours (for protein extraction) or 0, 6 and 24 hours (for genomic DNA extraction) after UV treatment.
PP2A targets: Gln3-myc, Npr1-myc, Nnk1-myc were all separated on NuPage precast 3-8% SDS gels. PonceauS staining was used as a loading control.
Cells were fixed in one volume of ice-cold 100% ethanol and incubated on ice for 5′. Genomic DNAs were then prepared following standard procedure. Equal amounts of DNA were loaded on 0.8% agarose gel, transferred by Southern blot onto nitrocellulose membrane (Amersham Protran 0.45μ) and cross-linked by baking 1 hour at 80° C.
Lifespan Viability Assays were Carried as Follows: Aliquots of Cells were Removed Throughout the CLS kinetics, serially diluted and spotted on YPD plates. The plates were then exposed to 40 J/m^2 (or 20 J/m^2 in some cases), incubated at 25° C. and scanned after 3 days. In FIGS. 33, 34 and 36 individual spot assay rows were cut out for space reasons, but the compared strains were always from the same plates.

CN(C)C(=N)NC(=N)N.Cl [metformin]
glucose consumption and lactate production [1]: dose and time-dependent increase in glucose consumption and lactate production | GSK3β phosphorylation ([2]; low glucose-metformin combination): almost completely abolished GSK3β phosphorylation | MCL-1 protein levels ([2]; metformin in low glucose): marked reduction in MCL-1 protein levels | level of CIP2A ([2]; metformin treatment): reduction in the level of CIP2A | tumor growth in PDX models [3]: also works on PDX models of tumor | cell death [4]: marked cell death | blood glucose levels [5]: reduced blood glucose levels but to a much less extent than that induced by fasting | sensitization by RAD51 knockdown [6]: dramatically sensitizes | tumor growth ([7]; metformin 200 mg/kg every 48 h during fasting cycles (Met/Fast)): dramatically impeded | tumor growth ([7]; metformin alone, ad libitum feeding, 200 mg/kg oral gavage): did not exert any significant tumor restraining effect | DDR, NER and lifespan during chronological aging [8]: improve DDR and promote longevity but not NER
